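Interpolation was linear, between the two tested concentrations surrounding the appropriate level; five concentrations were tested over 48 hours in 96-well plates. At the TGI there is no net growth.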
How the values were obtained:
Assay in all cases: NCI-60 cell line screen, 48 h
SF-539 CNS = tested on: SF-539 CNS
HCT-15 colon = tested on: HCT-15 colon
UACC-257 melanoma = tested on: UACC-257 melanoma
RPMI-8226 leukemia = tested on: RPMI-8226 leukemia
SF-295 CNS = tested on: SF-295 CNS
MOLT-4 leukemia = tested on: MOLT-4 leukemia
M14 melanoma = tested on: M14 melanoma
SNB-75 CNS = tested on: SNB-75 CNS
OVCAR-4 ovarian = tested on: OVCAR-4 ovarian
CAKI-1 renal = tested on: CAKI-1 renal
SF-268 CNS = tested on: SF-268 CNS
OVCAR-3 ovarian = tested on: OVCAR-3 ovarian
HL-60(TB) leukemia = tested on: HL-60(TB) leukemia
MDA-MB-435 = tested on: MDA-MB-435
K-562 leukemia = tested on: K-562 leukemia
SK-MEL-5 melanoma = tested on: SK-MEL-5 melanoma
SK-MEL-28 melanoma = tested on: SK-MEL-28 melanoma
A549 NSCLC = tested on: A549 NSCLC
RXF 393 renal = tested on: RXF 393 renal
SN12C renal = tested on: SN12C renal
IGROV1 ovarian = tested on: IGROV1 ovarian
MALME-3M melanoma = tested on: MALME-3M melanoma
NCI-H460 lung = tested on: NCI-H460 lung
LOX IMVI melanoma = tested on: LOX IMVI melanoma
COLO 205 colon = tested on: COLO 205 colon
ACHN renal = tested on: ACHN renal
A498 renal = tested on: A498 renal
EKVX NSCLC = tested on: EKVX NSCLC
DU-145 prostate = tested on: DU-145 prostate
PC-3 prostate = tested on: PC-3 prostate
HOP-62 NSCLC = tested on: HOP-62 NSCLC
SR leukemia = tested on: SR leukemia
MCF7 breast = tested on: MCF7 breast
OVCAR-5 ovarian = tested on: OVCAR-5 ovarian
HCC-2998 colon = tested on: HCC-2998 colon
HOP-92 NSCLC = tested on: HOP-92 NSCLC
SW-620 colon = tested on: SW-620 colon
MDA-MB-231 breast = tested on: MDA-MB-231 breast
NCI-H522 lung = tested on: NCI-H522 lung
TK-10 renal = tested on: TK-10 renal
KM12 colon = tested on: KM12 colon
NCI-H23 lung = tested on: NCI-H23 lung
UO-31 renal = tested on: UO-31 renal
U251 CNS = tested on: U251 CNS
OVCAR-8 ovarian = tested on: OVCAR-8 ovarian
SK-OV-3 ovarian = tested on: SK-OV-3 ovarian
UACC-62 melanoma = tested on: UACC-62 melanoma
MDA-N = tested on: MDA-N
CCRF-CEM leukemia = tested on: CCRF-CEM leukemia
T-47D breast = tested on: T-47D breast
SNB-19 CNS = tested on: SNB-19 CNS
NCI/ADR-RES ovarian = tested on: NCI/ADR-RES ovarian
BT-549 breast = tested on: BT-549 breast
786-0 renal = tested on: 786-0 renal
HCT-116 colon = tested on: HCT-116 colon
SK-MEL-2 melanoma = tested on: SK-MEL-2 melanoma
HT29 colon = tested on: HT29 colon
NCI-H226 lung = tested on: NCI-H226 lung
HS 578T breast = tested on: HS 578T breast

## CC(NC(=O)OC(C)(C)C)C(=O)NC(Cc1ccccc1)C(=O)NCC(=O)ON=C1CCCC1 (configuration not stated)
SF-539 CNS
  TGI: > 100 µM
HCT-15 colon
  TGI: > 100 µM
UACC-257 melanoma
  TGI: > 100 µM
RPMI-8226 leukemia
  TGI: > 100 µM
SF-295 CNS
  TGI: > 100 µM
MOLT-4 leukemia
  TGI: > 100 µM
M14 melanoma
  TGI: > 100 µM
SNB-75 CNS
  TGI: > 100 µM
OVCAR-4 ovarian
  TGI: > 100 µM
CAKI-1 renal
  TGI: > 100 µM
SF-268 CNS
  TGI: > 100 µM
OVCAR-3 ovarian
  TGI: > 100 µM
HL-60(TB) leukemia
  TGI: > 100 µM
MDA-MB-435
  TGI: > 100 µM
K-562 leukemia
  TGI: > 100 µM
SK-MEL-5 melanoma
  TGI: > 100 µM
SK-MEL-28 melanoma
  TGI: > 100 µM
A549 NSCLC
  TGI: > 100 µM
RXF 393 renal
  TGI: > 100 µM
SN12C renal
  TGI: > 100 µM
IGROV1 ovarian
  TGI: > 100 µM
MALME-3M melanoma
  TGI: > 100 µM
NCI-H460 lung
  TGI: > 100 µM
LOX IMVI melanoma
  TGI: > 100 µM
COLO 205 colon
  TGI: > 100 µM
ACHN renal
  TGI: > 100 µM
A498 renal
  TGI: > 100 µM
EKVX NSCLC
  TGI: > 100 µM
DU-145 prostate
  TGI: > 100 µM
PC-3 prostate
  TGI: > 100 µM
HOP-62 NSCLC
  TGI: > 100 µM
SR leukemia
  TGI: > 100 µM
MCF7 breast
  TGI: > 100 µM
OVCAR-5 ovarian
  TGI: > 100 µM
HCC-2998 colon
  TGI: > 100 µM
HOP-92 NSCLC
  TGI: > 100 µM
SW-620 colon
  TGI: > 100 µM
MDA-MB-231 breast
  TGI: > 100 µM
NCI-H522 lung
  TGI: > 100 µM
TK-10 renal
  TGI: > 100 µM
KM12 colon
  TGI: > 100 µM
NCI-H23 lung
  TGI: > 100 µM
UO-31 renal
  TGI: > 100 µM
U251 CNS
  TGI: > 100 µM
OVCAR-8 ovarian
  TGI: > 100 µM
SK-OV-3 ovarian
  TGI: > 100 µM
UACC-62 melanoma
  TGI: > 100 µM
MDA-N
  TGI: > 100 µM
CCRF-CEM leukemia
  TGI: > 100 µM
T-47D breast
  TGI: > 100 µM
SNB-19 CNS
  TGI: > 100 µM
NCI/ADR-RES ovarian
  TGI: > 100 µM
BT-549 breast
  TGI: > 100 µM
786-0 renal
  TGI: > 100 µM
HCT-116 colon
  TGI: > 100 µM
SK-MEL-2 melanoma
  TGI: > 100 µM
HT29 colon
  TGI: > 100 µM
NCI-H226 lung
  TGI: > 100 µM

## COC(=O)C1(C(=O)OC)CC(=O)c2c(OC(=O)c3cccc(OC)c3C#N)ccc(OC(=O)c3cccc(OC)c3C#N)c2C1
SF-539 CNS
  TGI: > 100 µM
HCT-15 colon
  TGI: > 100 µM
UACC-257 melanoma
  TGI: > 100 µM
RPMI-8226 leukemia
  TGI: > 100 µM
SF-295 CNS
  TGI: > 100 µM
MOLT-4 leukemia
  TGI: > 100 µM
M14 melanoma
  TGI: > 100 µM
SNB-75 CNS
  TGI: > 100 µM
OVCAR-4 ovarian
  TGI: > 100 µM
CAKI-1 renal
  TGI: > 100 µM
SF-268 CNS
  TGI: > 100 µM
OVCAR-3 ovarian
  TGI: > 100 µM
HL-60(TB) leukemia
  TGI: > 100 µM
MDA-MB-435
  TGI: > 100 µM
K-562 leukemia
  TGI: > 100 µM
SK-MEL-5 melanoma
  TGI: > 100 µM
SK-MEL-28 melanoma
  TGI: > 100 µM
A549 NSCLC
  TGI: > 100 µM
HS 578T breast
  TGI: > 100 µM
RXF 393 renal
  TGI: > 100 µM
SN12C renal
  TGI: > 100 µM
IGROV1 ovarian
  TGI: > 100 µM
MALME-3M melanoma
  TGI: > 100 µM
NCI-H460 lung
  TGI: > 100 µM
LOX IMVI melanoma
  TGI: > 100 µM
COLO 205 colon
  TGI: > 100 µM
ACHN renal
  TGI: > 100 µM
A498 renal
  TGI: > 100 µM
EKVX NSCLC
  TGI: > 100 µM
DU-145 prostate
  TGI: > 100 µM
PC-3 prostate
  TGI: > 100 µM
HOP-62 NSCLC
  TGI: > 100 µM
SR leukemia
  TGI: > 100 µM
MCF7 breast
  TGI: > 100 µM
OVCAR-5 ovarian
  TGI: > 100 µM
HCC-2998 colon
  TGI: > 100 µM
HOP-92 NSCLC
  TGI: > 100 µM
SW-620 colon
  TGI: > 100 µM
MDA-MB-231 breast
  TGI: > 100 µM
NCI-H522 lung
  TGI: > 100 µM
TK-10 renal
  TGI: > 100 µM
KM12 colon
  TGI: > 100 µM
NCI-H23 lung
  TGI: > 100 µM
UO-31 renal
  TGI: > 100 µM
U251 CNS
  TGI: > 100 µM
OVCAR-8 ovarian
  TGI: > 100 µM
SK-OV-3 ovarian
  TGI: > 100 µM
UACC-62 melanoma
  TGI: > 100 µM
MDA-N
  TGI: > 100 µM
CCRF-CEM leukemia
  TGI: > 100 µM
SNB-19 CNS
  TGI: > 100 µM
NCI/ADR-RES ovarian
  TGI: > 100 µM
786-0 renal
  TGI: > 100 µM
HCT-116 colon
  TGI: > 100 µM
HT29 colon
  TGI: > 100 µM
NCI-H226 lung
  TGI: > 100 µM

## NC(=O)C(N)CC12CC3CC(CC(C3)C1)C2 (configuration not stated)
HCT-15 colon
  TGI: > 100 µM
UACC-257 melanoma
  TGI: 76.7 µM
RPMI-8226 leukemia
  TGI: 47.3 µM
SF-295 CNS
  TGI: 54.9 µM
MOLT-4 leukemia
  TGI: 58.1 µM
M14 melanoma
  TGI: 37.4 µM
SNB-75 CNS
  TGI: > 100 µM
OVCAR-4 ovarian
  TGI: 64.7 µM
CAKI-1 renal
  TGI: > 100 µM
SF-268 CNS
  TGI: 92.5 µM
MDA-MB-435
  TGI: 44 µM
K-562 leukemia
  TGI: > 100 µM
SK-MEL-5 melanoma
  TGI: 28.5 µM
SK-MEL-28 melanoma
  TGI: 55.4 µM
A549 NSCLC
  TGI: > 100 µM
HS 578T breast
  TGI: 42.6 µM
RXF 393 renal
  TGI: 32.5 µM
SN12C renal
  TGI: 41.2 µM
NCI-H460 lung
  TGI: > 100 µM
LOX IMVI melanoma
  TGI: 29.9 µM
ACHN renal
  TGI: > 100 µM
EKVX NSCLC
  TGI: 97.5 µM
DU-145 prostate
  TGI: 33.7 µM
PC-3 prostate
  TGI: 51.9 µM
SR leukemia
  TGI: 43.5 µM
MCF7 breast
  TGI: 44.9 µM
OVCAR-5 ovarian
  TGI: 42.4 µM
HCC-2998 colon
  TGI: 49.3 µM
HOP-92 NSCLC
  TGI: 30.4 µM
SW-620 colon
  TGI: > 100 µM
MDA-MB-231 breast
  TGI: 41.7 µM
NCI-H522 lung
  TGI: 44.4 µM
TK-10 renal
  TGI: 85.3 µM
KM12 colon
  TGI: 47.8 µM
NCI-H23 lung
  TGI: 51.7 µM
UO-31 renal
  TGI: 44.2 µM
U251 CNS
  TGI: 34.7 µM
OVCAR-8 ovarian
  TGI: 65.4 µM
SK-OV-3 ovarian
  TGI: > 100 µM
UACC-62 melanoma
  TGI: 28.3 µM
MDA-N
  TGI: 28.7 µM
CCRF-CEM leukemia
  TGI: 63.7 µM
SNB-19 CNS
  TGI: 54.6 µM
NCI/ADR-RES ovarian
  TGI: 91.7 µM
786-0 renal
  TGI: 40.7 µM
HCT-116 colon
  TGI: 30.7 µM
SK-MEL-2 melanoma
  TGI: 55 µM
HT29 colon
  TGI: 72.6 µM
